Experiment [1] deals with neuronal cybrids derived from a MELAS patient (m.3243A>G tRNA^Leu mutation). The experiment is described as follows: Lactate production of MELAS neuronal cybrids. The note with it: 1 μM or 300 nM, 48 hours. It counts as cell-based, human. As to the method: The increase in the lactate production is the result of a toxicity of the drug used, but also of a mitochondrial dysfunction (energy deficiency) present in MELAS syndrome.
Neuronal cybrid lines carrying the MELAS mutation and the parental control line were grown in sterile culture flasks and incubated at 37° C. with 5% CO2 in a medium composed of DMEM with 1.5 g/L glucose, 2 mM L-glutamine and supplemented with 10% foetal bovine serum as well as uridine (5 μg/ml) and pyruvate (10 μg/mL). The cells were harvested by trypsinisation in exponential phase and were used for subsequent biochemical or molecular mitochondrial analyses.
(§1) The MELAS neuronal cybrid line carrying the mutation seemingly in the homoplasmic state (i.e. reaching almost 100% MELAS mutation) and the SHSY-5Y parental control line were used for measurements of enzyme activities. […] These cell pellets were then analysed by spectrophotometry with measurement of the different mitochondrial biochemical activities, particularly the activity of citrate synthase and the activity of complex I of the respiratory chain. […]
The lactate concentration of the culture medium for neuronal cybrid and parental cells was determined by spectrophotometry using an enzymatic kit (Bohringer) on a Hitachi-Roche apparatus (Roche Diagnostics GmbH). […]

Experiment [2] relates to complex I in neuronal cybrids derived from a MELAS patient (m.3243A>G tRNA^Leu mutation). Description: Ratio of complex I/citrate synthase activities in MELAS neuronal cybrids. It counts as cell-based, human. The note with it: 1 μM or 300 nM, 48 hours. The procedure:
The mutant MELAS neuronal transmitochondrial line, which is the result of the fusion of the immortalised neuoroblastoma parental line SHSY-5Y with fibroblasts carrying the mutation m.3243A>G, was created in the laboratory of Prof. Procaccio.
Neuronal cybrid lines carrying the MELAS mutation and the parental control line were grown in sterile culture flasks and incubated at 37° C. with 5% CO2 in a medium composed of DMEM with 1.5 g/L glucose, 2 mM L-glutamine and supplemented with 10% foetal bovine serum as well as uridine (5 μg/ml) and pyruvate (10 μg/mL). […]
as §1
The enzymatic activities were measured according to the protocol described in Medjda et al, 2009 (Medja F, Allouche S, Frachon P, Jardel C, Malgat M, Mousson de Camaret B, Slama A, Lunardi J, Mazat J P, Lombès A. Development and implementation of standardized respiratory chain spectrophotometric assays for clinical diagnosis. Mitochondrion. 2009 September; 9(5):331-9).

These results are taken from patent publication US10639287B2, “Compounds for the treatment of mitochondrial diseases” (UNIVERSITE PARIS-SUD, priority 2014, dated 2020).

For the compound `CCCCCCCN(CC)CCCC(O)c1ccc(NS(C)(=O)=O)cc1` (centres unmarked) [ibutilide], the production of lactate result in experiment [1] is listed as “decreased”. In addition, in experiment [2], the “activity of complex I (ratio complex I/citrate synthase)” value is “increased”.
